Laboratory results as given in US20230330004A1, “COMPOSITION COMPRISING GINSENG EXTRACT FOR REFORMING SKIN MICROBIOTA” (KOREA GINSENG CORP., priority 2020, published 2023).

What was measured:
[1] = system: Staphylococcus epidermidis; assay: Growth of beneficial skin microbes, absorbance at 600 nm (Experimental Example 2); type: cell-based; conditions: for Effect of selectively promoting the growth of beneficial microbes rather than harmful microbes (in words): S. epidermidis versus S. aureus, from Table 2; for Effect of promoting the growth of beneficial microbes (in words): S. epidermidis, compared to the composition of the present invention; for OD600 (Beneficial microbes): Staphylococcus epidermidis, incubated 24 hours in shaking incubator, absorbance at 600 nm; for Increase in beneficial microbes versus harmful microbes: ratio of OD600 S. epidermidis / S. aureus, 24 hours
Method: (§1) To compare the compositions of Example and Comparative Examples in terms of the increase in growth of beneficial skin microbes versus harmful skin microbes, the growth of each microbe was measured by the same method as described in Experimental Example 1. Specifically, using Staphylococcus epidermidis as beneficial skin microbes, and Staphylococcus aureus (Strain number 39149, Korean Collection for Type Cultures) as harmful skin microbes, samples were inoculated respectively and incubated for 24 hours in a shaking incubator. Solutions with the strains grown therein were each collected and centrifuged, and after removing the supernatant therefrom, an equivalent amount of a saline solution was added to prepare a bacterial solution.

[2] = system: Staphylococcus aureus (Strain number 39149, Korean Collection for Type Cultures); assay: Growth of harmful skin microbes, absorbance at 600 nm (Experimental Example 2); type: cell-based; conditions: incubated 24 hours in shaking incubator
Method: as §1

| Compound | Effect of selectively promoting the growth of beneficial microbes rather than harmful microbes (in words) [1] | Effect of promoting the growth of beneficial microbes (in words) [1] | OD600 (Beneficial microbes) [1] | Increase in beneficial microbes versus harmful microbes [1] | OD600 (Harmful microbes) [2] |
| --- | --- | --- | --- | --- | --- |
| CC(=O)N[C@H]1[C@H]([C@H](O)[C@H](O)CO)O[C@@](OC[C@H]2O[C@@H](O[C@H]3[C@H](O)[C@@H](O)C(O)O[C@@H]3CO)[C@H](O)[C@@H](O)[C@H]2O)(C(=O)O)C[C@@H]1O (stereo partly shown) [Comparative Example 3, 6-Sialyllactose] | low | negligible | 0.047 | ×0.723 | 0.065 |
| 3-Sialyllactose [Comparative Example 2] | low | negligible | 0.049 | ×0.636 | 0.077 |
